Reference: ChEMBL document CHEMBL5442379, “ASAP - SARS-CoV-2 nsp3 macrodomain single point” (2024)

Molecular target: Replicase polyprotein 1ab (Severe acute respiratory syndrome coronavirus 2) (UniProt P0DTD1)
Description: Functional biochemical assay to identify treatments for viral infectious disease that targets SARS-COV-2 nsp3 macrodomain, whereby the mechanism of action displaces an ADP-Ribose modified peptide from the binding site. Utilizing a time-resolved fluorescence method to measure binding by reading the emitted fluorescence intensity in two wavelengths.

In the case of CCC[C@@](C)(NC(=O)c1ncnc2[nH]ccc12)C(=O)OC, the inhibition (Concentration 50.0 uM, Number of replicates 2.0, Standard deviation 3.705 %) is reported as -6.62%.

CN1CCO[C@H](CNC(=O)c2ccc(NC(=O)Nc3ccccc3)cc2)C1 gave an inhibition (Concentration 49.75 uM, Number of replicates 2.0, Standard deviation 5.309 %) of -0.616% and an inhibition (Concentration 99.5 uM, Number of replicates 2.0, Standard deviation 6.496 %) of 3.27%.

Molecule O=C(NCc1cc2n(n1)CCCC2)c1cc2cncnc2[nH]1 has an inhibition (Concentration 50.0 uM, Number of replicates 4.0, Standard deviation 10.451 %) of 4.17%.

For CC(C)(C[C@@H]1CCCN(c2ncnc3[nH]ccc23)C1)C(N)=O, the inhibition (Concentration 50.0 uM, Number of replicates 2.0, Standard deviation 4.235 %) was -1.59%.

Work on O=C(c1nc(=O)[nH][nH]1)N1CCC(c2ccn3ncc(C(=O)N4CCCCC4)c3c2)CC1 yielded an inhibition (Concentration 49.75 uM, Number of replicates 2.0, Standard deviation 0.837 %) of 23.4% and an inhibition (Concentration 99.5 uM, Number of replicates 2.0, Standard deviation 3.14 %) of 34.6%.

With Cn1cnc(C(=O)N(CCC(=O)N2CCNCC2)Cc2cccc(Cl)c2)n1 the inhibition (Concentration 49.75 uM, Number of replicates 2.0, Standard deviation 2.331 %) was -1.44% and the inhibition (Concentration 99.5 uM, Number of replicates 2.0, Standard deviation 4.384 %) was -0.25%.

Cc1nc(C(=O)N2CCC(c3ccn4ncc(C(=O)N5CCCCC5)c4c3)CC2)c(C)[nH]1 gave an inhibition (Concentration 49.75 uM, Number of replicates 2.0, Standard deviation 0.064 %) of 16.8% and an inhibition (Concentration 99.5 uM, Number of replicates 2.0, Standard deviation 4.92 %) of 27.5%.

Work on O=C(CCN(Cc1cccc(Cl)c1)C(=O)c1cnon1)N1CCNCC1 yielded an inhibition (Concentration 49.75 uM, Number of replicates 2.0, Standard deviation 0.478 %) of -2.44% and an inhibition (Concentration 99.5 uM, Number of replicates 2.0, Standard deviation 0.154 %) of -1.08%.

CC(C)[C@@H](Nc1ncnc2[nH]ccc12)c1nc2ccccc2[nH]1 was tested, and the inhibition (Concentration 49.75 uM, Number of replicates 2.0, Standard deviation 3.253 %) was 37.3% and the inhibition (Concentration 99.5 uM, Number of replicates 2.0, Standard deviation 1.702 %) was 52.5%.

For O=C(NCC1(O)CCOCC1)c1cnn2ccc(C3CCN(C(=O)c4ccccc4)CC3)cc12, the inhibition (Concentration 49.75 uM, Number of replicates 2.0, Standard deviation 3.347 %) was -3.96% and the inhibition (Concentration 99.5 uM, Number of replicates 2.0, Standard deviation 3.334 %) was -1.1%.

Cc1ccc2ccccc2c1-c1ncnc2[nH]ccc12 was tested, and the inhibition (Concentration 49.75 uM, Number of replicates 2.0, Standard deviation 3.409 %) was -5.32% and the inhibition (Concentration 99.5 uM, Number of replicates 2.0, Standard deviation 3.055 %) was -9.1%.

For Nc1c(O)cccc1C(=O)N(CCC(=O)N1CCNCC1)Cc1cccc(Cl)c1, the inhibition (Concentration 49.75 uM, Number of replicates 2.0, Standard deviation 0.165 %) was -1.24% and the inhibition (Concentration 99.5 uM, Number of replicates 2.0, Standard deviation 3.032 %) was 1.46%.

COc1cccc2cc(CNc3cnc4[nH]ncc4c3)oc12 was tested, and the inhibition (Concentration 50.0 uM, Number of replicates 2.0, Standard deviation 5.215 %) was -4.29%.

Cc1[nH]c2ncnc(NC(=O)C3CC=CC3)c2c1C showed an inhibition (Concentration 50.0 uM, Number of replicates 2.0, Standard deviation 5.54 %) of 73.1%.

C[C@@]1(C(N)=O)CCCN1C(=O)c1cnn2ccc(C3CCN(C(=O)c4ccccc4)CC3)cc12 was tested, and the inhibition (Concentration 49.75 uM, Number of replicates 2.0, Standard deviation 3.259 %) was -8.04% and the inhibition (Concentration 99.5 uM, Number of replicates 2.0, Standard deviation 21.157 %) was 10.4%.

Cc1nc(NC(=O)c2nccc3ccncc23)c2cc[nH]c2n1 showed an inhibition (Concentration 50.0 uM, Number of replicates 2.0, Standard deviation 2.951 %) of -5.83% and an inhibition (Concentration 100.0 uM, Number of replicates 2.0, Standard deviation 4.025 %) of 2.61%.

NC(=O)[C@@H]1CCN(C(=O)c2cnc3[nH]c(=O)[nH]c(=O)c3c2)C1 was tested, and the inhibition (Concentration 50.0 uM, Number of replicates 2.0, Standard deviation 2.086 %) was -6.32%.

Work on O=C(Nc1cnc2[nH]ncc2c1)C1(c2ccccc2)CC1 yielded an inhibition (Concentration 50.0 uM, Number of replicates 2.0, Standard deviation 8.824 %) of 3.21%.

C[C@@H](Nc1ncnc2[nH]ccc12)c1cnn(CC2CCC2)c1 showed an inhibition (Concentration 49.75 uM, Number of replicates 2.0, Standard deviation 1.153 %) of -0.451% and an inhibition (Concentration 99.5 uM, Number of replicates 2.0, Standard deviation 1.366 %) of 4.9%.

For Cc1ccc(O)c(CNc2ncnc3[nH]cnc23)n1, the inhibition (Concentration 50.0 uM, Number of replicates 2.0, Standard deviation 1.123 %) was 0.262% and the inhibition (Concentration 100.0 uM, Number of replicates 2.0, Standard deviation 2.0 %) was 6.28%.

With O=C(N[C@H](Cn1cnc2cc(F)c(F)cc21)C(=O)O)c1ncnc2[nH]ccc12 the inhibition (Concentration 49.75 uM, Number of replicates 2.0, Standard deviation 5.178 %) was -2.04% and the inhibition (Concentration 99.5 uM, Number of replicates 2.0, Standard deviation 0.435 %) was 8.39%.

With Cc1ncc(NCc2cc3n(n2)CCOC3)cc1C(N)=O the inhibition (Concentration 50.0 uM, Number of replicates 2.0, Standard deviation 4.482 %) was 0.46%.

With Cc1cc(N)ncc1C(=O)N1CCC(c2ccn3ncc(C(=O)N4CCCCC4)c3c2)CC1 the inhibition (Concentration 49.75 uM, Number of replicates 2.0, Standard deviation 0.411 %) was 19.5% and the inhibition (Concentration 99.5 uM, Number of replicates 2.0, Standard deviation 3.667 %) was 32.6%.

With C[C@@H](CO)Nc1ncnc2[nH]c(C(=O)OC(C)(C)C)cc12 the inhibition (Concentration 50.0 uM, Number of replicates 2.0, Standard deviation 12.843 %) was 10.7%.

With O=C(CCN(Cc1cccc(Cl)c1)C(=O)c1ccc(O)cc1)N1CCNCC1 the inhibition (Concentration 49.75 uM, Number of replicates 2.0, Standard deviation 5.17 %) was -0.343% and the inhibition (Concentration 99.5 uM, Number of replicates 2.0, Standard deviation 10.002 %) was -1.63%.

Molecule CNC(=O)c1cccc(CNC(=O)c2ncnc3[nH]ccc23)c1 has an inhibition (Concentration 50.0 uM, Number of replicates 2.0, Standard deviation 1.029 %) of -5.91%.

CCn1cc(CNC(=O)c2ccc(NC(=O)Nc3ccccc3)cc2)cn1 was tested, and the inhibition (Concentration 49.75 uM, Number of replicates 2.0, Standard deviation 1.767 %) was -1.76% and the inhibition (Concentration 99.5 uM, Number of replicates 2.0, Standard deviation 3.239 %) was 3.8%.

For c1nc(N2CCC[C@@H](c3nc4c(s3)CCC4)C2)c2c[nH]nc2n1, the inhibition (Concentration 50.0 uM, Number of replicates 2.0, Standard deviation 1.131 %) was 3.83%.

Cc1n[nH]c(C)c1C(=O)N1CCC(c2ccn3ncc(C(=O)N4CCCCC4)c3c2)CC1 showed an inhibition (Concentration 49.75 uM, Number of replicates 2.0, Standard deviation 0.408 %) of 10.8% and an inhibition (Concentration 99.5 uM, Number of replicates 2.0, Standard deviation 0.015 %) of 23.3%.

In the case of OC[C@@]1(Cc2ccc(F)cc2)CCN(c2ncnc3[nH]ccc23)C1, the inhibition (Concentration 50.0 uM, Number of replicates 2.0, Standard deviation 2.787 %) is reported as 5.07%.

Cc1ccc(S(=O)(=O)Nc2ccccc2F)cc1C(=O)Nc1cnc2[nH]ncc2c1 gave an inhibition (Concentration 50.0 uM, Number of replicates 2.0, Standard deviation 3.248 %) of 0.764%.

In the case of CC(C)c1c[nH]nc1NC(=O)c1ccc(NC(=O)Nc2ccccc2)cc1, the inhibition (Concentration 49.75 uM, Number of replicates 2.0, Standard deviation 3.059 %) is reported as 6.99% and the inhibition (Concentration 99.5 uM, Number of replicates 2.0, Standard deviation 3.555 %) is reported as 8.5%.

Molecule COc1nc2cc(NC(=O)c3cc(N4CCNC4=O)ccc3F)ccc2[nH]1 has an inhibition (Concentration 50.0 uM, Number of replicates 2.0, Standard deviation 4.804 %) of -4.21%.

Work on CC(C)[C@@H](Nc1ncnc2[nH]ccc12)c1cccs1 yielded an inhibition (Concentration 49.75 uM, Number of replicates 2.0, Standard deviation 1.872 %) of 84.7% and an inhibition (Concentration 99.5 uM, Number of replicates 2.0, Standard deviation 2.645 %) of 89.9%.

O=C(O)c1cscc1C(=O)N1CCC(c2ccn3ncc(C(=O)N4CCCCC4)c3c2)CC1 was tested, and the inhibition (Concentration 50.0 uM, Number of replicates 2.0, Standard deviation 2.729 %) was 47.7% and the inhibition (Concentration 100.0 uM, Number of replicates 2.0, Standard deviation 0.311 %) was 66.7%.

Molecule O=C(Nc1ccccc1)Nc1ccc(C(=O)N2CCn3nccc3C2)cc1 has an inhibition (Concentration 49.75 uM, Number of replicates 2.0, Standard deviation 2.554 %) of -3.11% and an inhibition (Concentration 99.5 uM, Number of replicates 2.0, Standard deviation 2.469 %) of 2.3%.

With Cc1cccc2oc(CCNc3ncnc4[nH]ccc34)nc12 the inhibition (Concentration 50.0 uM, Number of replicates 2.0, Standard deviation 6.123 %) was -3.26%.

In the case of O=C(CCN(Cc1cccc(Cl)c1)C(=O)C1(O)CCCC1)N1CCNCC1, the inhibition (Concentration 49.75 uM, Number of replicates 2.0, Standard deviation 1.82 %) is reported as -1.21% and the inhibition (Concentration 99.5 uM, Number of replicates 2.0, Standard deviation 0.971 %) is reported as -1.78%.

Molecule O=C(c1cc(O)ncn1)N1CCC(c2ccn3ncc(C(=O)N4CCCCC4)c3c2)CC1 has an inhibition (Concentration 49.75 uM, Number of replicates 2.0, Standard deviation 0.931 %) of 19.1% and an inhibition (Concentration 99.5 uM, Number of replicates 2.0, Standard deviation 1.95 %) of 30.9%.

O=C(Nc1ccc(O)cc1)Nc1ccc(Oc2ccccc2)cc1 was tested, and the inhibition (Concentration 50.0 uM, Number of replicates 2.0, Standard deviation 2.274 %) was -3.31%.

For CC(C)OCCNC(=O)c1cc2c(=O)n3ccccc3nc2n1C, the inhibition (Concentration 50.0 uM, Number of replicates 2.0, Standard deviation 4.259 %) was 14%.

Cc1nc(C)c(CC(=O)Nc2cnc3[nH]ncc3c2)c(=O)[nH]1 showed an inhibition (Concentration 50.0 uM, Number of replicates 2.0, Standard deviation 0.296 %) of 4.83%.

For O=C(Nc1cnc2[nH]ncc2c1)c1ccncc1Cl, the inhibition (Concentration 50.0 uM, Number of replicates 2.0, Standard deviation 1.31 %) was -2.75%, the inhibition (Concentration 50.0 uM, Number of replicates 2.0, Standard deviation 1.931 %) was -0.272% and the inhibition (Concentration 100.0 uM, Number of replicates 2.0, Standard deviation 1.828 %) was 2.96%.

O=C(N[C@@H]1CCCNC1=O)c1cnn2ccc(C3CCN(C(=O)c4ccccc4)CC3)cc12 gave an inhibition (Concentration 49.75 uM, Number of replicates 2.0, Standard deviation 2.776 %) of -3.16% and an inhibition (Concentration 99.5 uM, Number of replicates 2.0, Standard deviation 2.396 %) of -4.87%.

O=C(Nc1cnc2[nH]ncc2c1)c1cccc(-c2noc(C(F)(F)F)n2)c1 gave an inhibition (Concentration 50.0 uM, Number of replicates 2.0, Standard deviation 7.077 %) of -0.675% and an inhibition (Concentration 100.0 uM, Number of replicates 2.0, Standard deviation 3.401 %) of -1.62%.

With O=C(Nc1ccc(C(=O)NCc2c(C(=O)O)[nH]c3ccccc23)cc1)NC1CC1 the inhibition (Concentration 50.0 uM, Number of replicates 2.0, Standard deviation 1.193 %) was 86.2%.

For CC(C)[C@@H](Nc1ncnc2[nH]ccc12)C(N)=O, the inhibition (Concentration 49.75 uM, Number of replicates 2.0, Standard deviation 3.584 %) was 64.4% and the inhibition (Concentration 99.5 uM, Number of replicates 2.0, Standard deviation 5.819 %) was 77.7%.

C[C@@H](Nc1ncnc2[nH]ccc12)c1cnn(Cc2ccccc2)c1 showed an inhibition (Concentration 49.75 uM, Number of replicates 2.0, Standard deviation 0.659 %) of -4.11% and an inhibition (Concentration 99.5 uM, Number of replicates 2.0, Standard deviation 0.985 %) of 3.18%.

CSc1ccccc1NC(=O)c1ncnc2[nH]ccc12 was tested, and the inhibition (Concentration 50.0 uM, Number of replicates 2.0, Standard deviation 3.62 %) was -5.8%.

CSc1cccc(NC(=O)c2ncnc3[nH]ccc23)c1 showed an inhibition (Concentration 50.0 uM, Number of replicates 2.0, Standard deviation 4.41 %) of -4.67%.
